From patent publication US9012448B2, “1,2,4-triazolo[4,3-a]pyridine derivatives and their use as positive allosteric modulators of MGLUR2 receptors” (Janssen Pharmaceuticals, Inc., priority 2010, dated 2015) come the findings set out here.

For orientation: EC50 means the concentration needed to bring the measured effect to its halfway point. What is called Emax is the size of the effect at its maximum, as opposed to the concentration needed. The melting point is the temperature, or range, at which the solid turns liquid.

One data set addresses T1, human mGluR2 receptor (Homo sapiens, UniProt Q14416).
T1 construct: expressed in transfected cells; host or cells: CHO cells (membrane preparation)
Description: [35S]GTPγS binding assay, hmGluR2 PAM (membranes from transfected CHO cells, glutamate at EC20). The format is biochemical. As to conditions: for EC50: in presence of mGluR2 agonist glutamate at a predetermined EC20 concentration, pEC50 = -log EC50 (M), at least 8 concentrations; for GTPγS - hmGluR2 PAM Emax / Emax: relative maximal effect (maximal % effect relative to the control glutamate response), glutamate at EC20. An excerpt:
The compounds provided in the present invention are positive allosteric modulators of mGluR2. These compounds appear to potentiate glutamate responses by binding to an allosteric site other than the glutamate binding site. The response of mGluR2 to a concentration of glutamate is increased when compounds of Formula (I) are present. Compounds of Formula (I) are expected to have their effect substantially at mGluR2 by virtue of their ability to enhance the function of the receptor. The effects of positive allosteric modulators tested at mGluR2 using the [^35S]GTPγS binding assay method described below and which is suitable for the identification of such compounds, and more particularly the compounds according to Formula (I), are shown in Table 3.
The [^35S]GTPγS binding assay is a functional membrane-based assay used to study G-protein coupled receptor (GPCR) function whereby incorporation of a non-hydrolysable form of GTP, [^35S]GTPγS (guanosine 5′-triphosphate, labelled with […] ^35S), is measured. The G-protein a subunit catalyzes the exchange of guanosine 5′-diphosphate (GDP) by guanosine triphosphate (GTP) and on activation of the GPCR by an agonist, [^35S]GTPγS, becomes incorporated and cannot be cleaved to continue the exchange cycle (Harper (1998) Current Protocols in Pharmacology 2.6.1-10, John Wiley & Sons, Inc.). […] Here we describe the use of the [^35S]GTPγS binding assay using membranes from cells transfected with the human mGluR2 receptor and adapted from Schaffhauser et al. ((2003) Molecular Pharmacology 4:798-810) for the detection of the positive allosteric modulation (PAM) properties of the compounds of this invention.
CHO-cells were cultured to pre-confluence and stimulated with 5 mM butyrate for 24 h. Cells were then collected by scraping in PBS and cell suspension was centrifuged (10 min at 4000 RPM in benchtop centrifuge). Supernatant was discarded and pellet gently resuspended in 50 mM Tris-HCl, pH 7.4 by mixing with a vortex and pipetting up and down. The suspension was centrifuged at 16,000 RPM (Sorvall RC-5C plus rotor SS-34) for 10 minutes and the supernatant discarded. The pellet was homogenized in 5 mM Tris-HCl, pH 7.4 using an ultra-turrax homogenizer and centrifuged again (18,000 RPM, 20 min, 4° C.). The final pellet was resuspended in 50 mM Tris-HCl, pH 7.4 and stored at −80° C. in appropriate aliquots before use. Protein concentration was determined by the Bradford method (Bio-Rad, USA) with bovine serum albumin as standard.
Measurement of mGluR2 positive allosteric modulatory activity of test compounds was performed as follows. Test compounds and glutamate were diluted in assay buffer containing 10 mM HEPES acid, 10 mM HEPES salt, pH 7.4, 100 mM NaCl, 3 mM MgCl2 and 10 μM GDP. Human mGlu2 receptor-containing membranes were thawed on ice and diluted in assay buffer supplemented with 14 μg/ml saponin. Membranes were pre-incubated with compound alone or together with a predefined (˜EC20) concentration of glutamate (PAM assay) for 30 min at 30° C. After addition of [^35S]GTPγS (f.c. 0.1 nM), assay mixtures were shaken briefly and further incubated to allow [^35S]GTPγS incorporation on activation (30 minutes, 30° C.). Final assay mixtures contained 7 μg of membrane protein in 10 mM HEPES acid, 10 mM HEPES salt, pH 7.4, 100 mM NaCl, 3 mM MgCl2, 10 μM GDP and 10 μg/ml saponin. Total reaction volume was 200 μl. Reactions were terminated by rapid filtration through Unifilter-96 GF/B plates (Perkin Elmer, Massachusetts, USA) using a 96-well filtermate universal harvester. Filters were washed 6 times with ice-cold 10 mM NaH2PO4/10 mM Na2HPO4, pH 7.4. Filters were then air-dried, and 40 μl of liquid scintillation cocktail (Microscint-O) was added to each well. Membrane-bound radioactivity was counted in a Microplate Scintillation and Luminescence Counter from Perkin Elmer. […]
(Binding of GTPγS marks nucleotide exchange on a G protein.)

T1 sequence (Q14416 19-872): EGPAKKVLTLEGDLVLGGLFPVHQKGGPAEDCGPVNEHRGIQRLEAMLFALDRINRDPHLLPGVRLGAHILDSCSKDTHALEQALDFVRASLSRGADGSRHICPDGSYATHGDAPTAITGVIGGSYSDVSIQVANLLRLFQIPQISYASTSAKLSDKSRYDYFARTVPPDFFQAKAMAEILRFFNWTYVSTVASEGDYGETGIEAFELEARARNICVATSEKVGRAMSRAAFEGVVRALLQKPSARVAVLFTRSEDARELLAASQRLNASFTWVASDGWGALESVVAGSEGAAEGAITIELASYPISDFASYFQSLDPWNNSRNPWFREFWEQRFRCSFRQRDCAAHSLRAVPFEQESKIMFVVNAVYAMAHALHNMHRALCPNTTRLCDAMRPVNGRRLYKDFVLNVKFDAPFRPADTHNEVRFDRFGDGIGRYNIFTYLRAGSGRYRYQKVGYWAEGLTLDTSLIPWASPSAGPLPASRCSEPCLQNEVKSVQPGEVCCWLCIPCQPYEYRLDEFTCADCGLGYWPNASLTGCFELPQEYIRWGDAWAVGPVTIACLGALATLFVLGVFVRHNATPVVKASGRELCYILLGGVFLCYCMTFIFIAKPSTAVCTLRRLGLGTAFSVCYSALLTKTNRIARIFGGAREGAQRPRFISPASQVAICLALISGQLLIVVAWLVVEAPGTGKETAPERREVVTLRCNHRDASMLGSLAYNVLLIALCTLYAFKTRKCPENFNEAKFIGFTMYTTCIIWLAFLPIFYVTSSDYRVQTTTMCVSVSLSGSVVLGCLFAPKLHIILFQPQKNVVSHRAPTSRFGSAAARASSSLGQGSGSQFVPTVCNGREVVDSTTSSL

Take `CC1(c2ccccc2F)COCCN1Cc1ccn2c(CC3CC3)nnc2c1C(F)(F)F` (single isomer, unassigned) [Compound 4a, 3-(Cyclopropylmethyl)-7-{[(3*R)-3-(2-fluorophenyl)-3-methylmorpholin-4-yl]methyl}-8-(trifluoromethyl)[1,2,4]triazolo[4,3-a]pyridine]: at human mGluR2 receptor, the EC50 was 1.82e-07 M and the “GTPγS - hmGluR2 PAM Emax” value is listed as 108%.
As for `CC1(c2ccccc2F)COCCN1Cc1ccn2c(CC3CC3)nnc2c1C(F)(F)F` (single isomer, unassigned) [Compound 4b, 3-(Cyclopropylmethyl)-7-{[(3*S)-3-(2-fluorophenyl)-3-methylmorpholin-4-yl]methyl}-8-(trifluoromethyl)[1,2,4]triazolo[4,3-a]pyridine], at human mGluR2 receptor, the EC50 was 1.95e-07 M and the “GTPγS - hmGluR2 PAM Emax” value is given as 52%.
As for `CC1(c2ccc(F)cc2F)COCCN1Cc1ccn2c(CC3CC3)nnc2c1C(F)(F)F` (single isomer, unassigned) [Compound 5a, 3-(Cyclopropylmethyl)-7-{[(3*R)-3-(2,4-difluorophenyl)-3-methylmorpholin-4-yl]methyl}-8-(trifluoromethyl)[1,2,4]triazolo[4,3-a]pyridine], at human mGluR2 receptor, the EC50 is 2e-07 M and the “GTPγS - hmGluR2 PAM Emax” value stood at 101%.
For `CC1(c2ccc(F)cc2F)COCCN1Cc1ccn2c(CC3CC3)nnc2c1C(F)(F)F` (single isomer, unassigned) [Compound 5b, 3-(Cyclopropylmethyl)-7-{[(3*S)-3-(2,4-difluorophenyl)-3-methylmorpholin-4-yl]methyl}-8-(trifluoromethyl)[1,2,4]triazolo[4,3-a]pyridine], at human mGluR2 receptor, the EC50 is 1.38e-07 M and the “GTPγS - hmGluR2 PAM Emax” value was found to be 126%.
Turning to `FC(F)(F)c1c(CN2CCOC[C@H]2c2ccccc2)ccn2c(CC3CC3)nnc12` [Compound 1, 3-(Cyclopropylmethyl)-7-[[(3R)-3-phenyl-4-morpholinyl]methyl]-8-(trifluoromethyl)-1,2,4-triazolo[4,3-c]pyridine], the melting point is 69.2 °C. Besides, on human mGluR2 receptor, the EC50 is 1.7e-07 M and the Emax came to 238%.
In the case of `FC(F)(F)c1c(CN2CCOC[C@@H]2c2ccccc2)ccn2c(CC3CC3)nnc12` [Compound 2, 3-(Cyclopropylmethyl)-7-[[(3S)-3-phenyl-4-morpholinyl]methyl]-8-(trifluoromethyl)-1,2,4-triazolo[4,3-c]pyridine], on human mGluR2 receptor, the EC50 is 4.27e-07 M and the Emax came to 136%.
